# Patent US20040106198A1, “Inhibition of peptide cleavage in plants” (LARGE SCALE BIOLOGY CORPORATION, priority 2002, published 2004)
# Where two headings read alike, the source gives them in different places. Numbered stars: 1 amine (or outer) side, 2 acyl side, 3 side chain; on linkers, the order of the positions; unused ones are H or OH. Square brackets hold non-standard residues; d marks the D form. Peptide text beside a SMILES is read from it. * marks the point of attachment. Sta = CC(C)C[C@H](N)[C@@H](O)CC(=O)O; pNA = O=[N+]([O-])c1ccc(N*)cc1; Suc = O=C(CCC(=O)[*:2])[*:1]; Isovaleryl = CC(C)CC(=O)*; Cbz = O=C(OCc1ccccc1)*; CK = not defined here
# Key:
# [1] = tested on: Nicotianalisin; assay: Protease inhibitor study in plant interstitial fluid (IF), N-Suc-AAPL-p-NA hydrolysis; type: biochemical, N. benthamiana
# Method: To further classify the protease activity in the plant IF extract, protease inhibitor studies were performed. Standard inhibitors from different classes of proteases were used. An aliquot of the plant IF was incubated with each inhibitor for 30 min at 24° C., and the free enzyme was incubated under the same conditions without the inhibitor to serve as the control. The protease activity after the inhibition was measured and compared to the control.
# To further characterize the plant proteolytic activity, experiments were initiated to partially purify the plant protease. In order to purify the protease, enzyme assays were developed and utilized. Proteolytic activity was monitored by the hydrolysis of a synthetic substrate, hydrolysis of a protein substrate and/or by an in situ gel procedure. […] The absorbance of the p-nitroaniline (p-NA) produced was measured at 410 nm (Erlanger, Kokowsky, and Cohen, 1961; Nakajima et al., 1979). The activity unit was defined as the amount of the enzyme capable of producing 1 nanomole of p-NA per min under the conditions of the experiment with an absorption coefficient of […] (Erlanger, Kokowsky, and Cohen, 1961; Nakajima et al., 1979). The rate of hydrolysis of N-Succinyl-Ala-Ala-Pro-Phe-thiobenzylester SEQ ID NO: in 10% DMSO and 4,4′-dithiodipyridine was monitored at […] using an extinction coefficient of 19800 cm^−1 M^−1 (Barrett and Kirschke, 1981). General proteolytic activity was measured with 2.0% azocasein or 2.0% azoalbumin and Fluorescein Isothiocyanate Casein (FITC-casein; (Twining, 1984)). The reaction was started by addition of 10 μl of protease solution to 70 μl of reaction mixture (100 mM buffer Tris-HCl pH 7.0 containing 0.04% FTC-casein, 0.5 mM DDT, 2 mM CaCl2) and incubation for 1 hr at 37° C. The reaction was stopped by addition of 80 μl of 10% TCA and incubation for 15 min at −20° C. The mixture was centrifuged for 10 min at 10,000×g at 4° C. 10 μl of the supernatant solution was added to 150 μl Tris-HCl (0.5 M, pH 8.5), and fluorescence was measured at an excitation wavelength of 490 nm and an emission wavelength of 525 nm using a fluorescence plate reader ((Erlanger, Kokowsky, and Cohen, 1961; Nakajima et al., 1979), Molecular Devices).
# [2] = tested on: plant protease; assay: In vitro stability of recombinant hGH in IF with protease inhibitors (Western); type: biochemical, N. benthamiana; settings: 24 hours at 24° C. followed by 120 hours at 5° C.; anti-hGH Western
# Method: FIG. 1 depicts the in vitro stability of expressed recombinant human growth hormone protein (hereafter “hGH”) in the interstitial fluid (hereafter “IF”) following the addition of protease inhibitors. Recombinant hGH protein was expressed in N. benthamiana using a tobacco mosaic virus (hereafter “TMV”) vector expression system. IF was prepared from plant leaves at 9 days post-inoculation and incubated for 24 hours at 24° C. followed by 120 hours at 5° C. with or without the addition of protease inhibitors. Fifteen microliters of the IF extract was separated by SDS-PAGE and the gel prepared for Western analysis. The levels of hGH protein in the IF of the time zero control (lane a), in absence of inhibitor (lane b), and in the presence of protease inhibitors chymostatin (lane c) and PI-I (lane d), were detected using anti-hGH antibody.
# When a plant viral vector expression system (Kumagai et al., 1995; McCormick et al., 1999) was utilized to express the secreted, mammalian recombinant protein, hGH, significant degradation of the target protein was observed. […]
# Aliquots of the plant IF fraction were separated by SDS-PAGE and levels of hGH protein were detected by immunoblot analysis using anti-hGH polyclonal antibody (Sigma, St. Louis, Mo.). […]
# At zero time, prior to the addition of any inhibitors, both full length and hGH cleavage products were detected (FIG. 1). […]
# [3] = tested on: Nicotianalisin; assay: In situ Zymogram gelatin gel assay of partially purified protease; type: biochemical, N. benthamiana; settings: 2 mM PMSF for 1 hr at 24° C.; partially purified fraction
# Method: FIG. 2 depicts the inhibition of Nicotianalisin by PMSF protease inhibitor using Zymogram gelatin gel analysis. Plant extracts containing Nicotianalisin activity were partially purified by ion-exchange chromatography at pH 5.2, and fractions with peak protease activity were treated with or without 2 mM PMSF for 1 hr at 24° C. Following treatment, aliquots were removed and inhibitory activity assessed on Zymogram gels.
# The in situ protease gel assay was carried out in pre-cast 10% Zymogram gels (Invitrogen, Carlsbad, Calif.) as per manufacturer's protocols.
# Following the initial observation that the plant protease activity was inhibited by both chymostatin and potato PI-I (FIG. 1), experiments were initiated to partially purify the protease from N. benthamiana leaves. Plants were grown and IF extracts were prepared as described above. The IF was filtered through a 0.8μ Sartorius GF membrane to remove most of the Ribulose-1,5-bisphosphate carboxylase/oxygenase (Rubisco) and green pigments. The diafiltered extract was separated further by SP sepharose (Pharmacia) ion exchange chromatography at pH 5.2.
# [4] = tested on: Nicotianalisin; assay: Hydrolysis of synthetic 4-nitroanilide peptide substrates by purified protease
# Method: Nicotianalisin enzyme specificity. The enzyme specificity of Nicotianalisin was assessed by monitoring the cleavage efficiency of numerous chromogenic synthetic substrates. An aliquot of the purified protease was added to an assay mixture containing 0.1 M Tris-HCl, pH 7.0, 5 mM CaCl2, 0.5-2.7% dimethylformamide, and 0.3 to 2 mM synthetic substrate and allowed to proceed for 30 min at 37° C. The released p-NA moiety was measured at 410 mu as previously described.
# Hydrolysis of homologous synthetic 4-nitroanilide peptides by Nicotianalisin. Enzymatic assays were conducted at 0.3 mM substrate concentration in 0.1 M Tris-HCl, pH 7.0, containing 5 mM CaCl2, and 0.5-2.7% dimethylformamide at 25° C.
# [5] = tested on: CD34+; assay: CD34+ proliferation assays; type: cell-based; settings: proteins purified from plants
# Method: The vectors were used to inoculate plant leaves of different sets of plants as described in the examples above. Both plant homogenates and interstitial fluid were extracted as described above. hSCF and pSCF were each purified from 27 plants to yield 0.85 mg (˜15 mg/kg) and 2.5 mg (˜45 mg/kg) of protein respectively.
# [6] = IF from viral vector-infected plants incubated with inhibitor 30 min at 24° C., 0.3 mM N-Suc-AAPL-p-NA
Compound,"% Inhibition [1, 6]",other results
c1cnc2c(c1)ccc1cccnc12 [1-10 Phenantrolin],11%,
O=c1oc(Cl)c(Cl)c2ccccc12 [3-4 DCI],100%,
CC(C)C[C@@H](N)[C@H](O)C(=O)N[C@H](C(=O)N[C@H](C(=O)N[C@@H](CC(=O)O)C(=O)O)C(C)C)C(C)C [Amastatin],5%,
CC(C)C[C@H](NC(=O)[C@@H](NC(=O)N[C@@H](Cc1ccccc1)C(=O)O)[C@@H]1CCN=C(N)N1)C(=O)N[C@H](C=O)Cc1ccccc1 [Chymostatin],100%,inhibition of degradation of hGH protein in IF extract [2]: inhibition of further degradation of the intact hGH protein was observed
CC(C)C[C@H](NC(=O)[C@H]1O[C@@H]1C(=O)O)C(=O)NCCCCN=C(N)N [E-64],5%,
O=C(O)CN(CCN(CC(=O)O)CC(=O)O)CC(=O)O [EDTA],5%,
CC(C)C[C@H](NC(=O)N[C@H](C(=O)N[C@@H](CCC(N)=O)C(=O)N[C@@H](C)C=O)[C@@H]1CCNC(=N)N1)C(=O)O [Elastinal],41%,
CC(=O)N[C@@H](CC(C)C)C(=O)N[C@@H](CC(C)C)C(=O)N[C@H](C=O)CCCNC(=N)N [Leupeptin],18%,
"O=S(=O)(F)Cc1ccccc1 [PMSF, phenylmethanesulfonyl fluoride]",100%,reduction of protease activity on Zymogram gelatin gel [3]: significant reduction of protease activity
CC(C)CC(=O)N[C@H](C(=O)N[C@H](C(=O)N[C@@H](CC(C)C)[C@@H](O)CC(=O)N[C@@H](C)C(=O)N[C@@H](CC(C)C)[C@@H](O)CC(=O)O)C(C)C)C(C)C [Pepstatin A] (Isovaleryl-VV[Sta]A[Sta]-OH),6%,
Cc1ccc(S(=O)(=O)N[C@@H](CCCCN)C(=O)CCl)cc1 [TLCK],,% Inhibition [1]: 0%
Cc1ccc(S(=O)(=O)N[C@@H](Cc2ccccc2)C(=O)CCl)cc1 [TPCK],38%,
Aprotinin,46%,
"N-CBZ-GGF-CK: irreversible serine protease inhibitor, active site titrant (Cbz-Gly-Gly-Phe-{CK}; reading uncertain; also: printed as N-CBZ-GGF-CK)",70%,
N-Suc-AAPM-pNA: synthetic 4-nitroanilide peptide substrate (SMILES CSCC[C@H](NC(=O)[C@@H]1CCCN1C(=O)[C@H](C)NC(=O)[C@H](C)NC(=O)CCC(=O)O)C(=O)Nc1ccc([N+](=O)[O-])cc1),,preferential cleavage of synthetic peptide substrates [4]: preferentially cleaved
N-Succinyl-Alanine-Alanine-Proline-Leucine-para-nitroanilide [N-Suc-AAPL-pNA],,preferential cleavage of synthetic peptide substrates [4]: preferentially cleaved
N-Succinyl-Alanine-Alanine-Proline-Phenylalanine-para-nitroanilide [N-Suc-AAPF-pNA],,preferential cleavage of synthetic peptide substrates [4]: preferentially cleaved
hSCF: human Stem Cell growth Factor expressed in plants from GENEWARE vector,,biological activity in CD34+ proliferation assays [5]: biologically active
